From patent US20130310374A1, “Substituted Imidazoquinoline Derivatives” (PIRAMAL ENTERPRISES LIMITED`, priority 2010, published 2013)

Columns and labels:
A2780 = assay: Cytotoxicity propidium iodide assay, A2780; assay type: cell-based; conditions: for inhibition at 1 µM / IC50 / inhibition at 10 µM: Homo sapiens; for inhibition at 1 µM: read-out: % Inhibition at 1 μM, C1a; for IC50: A2780 (ovarian), 48 hours treatment, read-out: IC50 Values in μM, C1a; for inhibition at 10 µM: A2780, 10 μM (stated in cell), read-out: % Inhibition at 10 μM, C1a
Protocol: (§1) The assay was designed as in the reference, Anticancer Drugs, 2002, 13, 1-8, the disclosure of which is incorporated herein by reference for the teaching of the assay.
(§2) Cells from cell lines (ATCC) as mentioned in the table given below were seeded at a density of 3000 cells/well in a white opaque 96-well plate. Following incubation at 37° C./5% CO2 for a period of 18-24 hours, the cells were treated with various concentrations (stock solution was prepared in DMSO and subsequent dilutions were made in media as per ATCC guidelines) of the compounds of the present invention for a period of 48 hours. At the end of treatment, the culture medium was discarded, the cells were washed with 1×PBS and 200 μL of […] propidium iodide was added to each well. The plates were frozen at […] overnight. For analysis, the plates were warmed to RT, allowed to thaw and were read in PoleStar fluorimeter with the fluorescence setting. The percentage of viable cells in the non-treated set of wells was considered to be 100 and the percentage viability following treatment was calculated accordingly. IC50 values were calculated from graphs plotted using these percentages. IC50 values for certain compounds of present invention are depicted in Table 1 and % Inhibition of certain compounds of present invention are depicted in Table 2.

PC3 = assay: Cytotoxicity propidium iodide assay, PC3; assay type: cell-based, human; conditions: for inhibition at 1 µM / IC50 / inhibition at 10 µM: Homo sapiens, PC-3; for inhibition at 1 µM: read-out: % Inhibition at 1 μM, C2a; for IC50: PC3 (prostate), 48 hours treatment, read-out: IC50 Values in μM, C2a; for inhibition at 10 µM: PC3, 10 μM (stated in cell), read-out: % Inhibition at 10 μM, C2a
Protocol: as §1, §2

Row | Compound | inhibition at 1 µM (A2780; A2780, 1 μM, 48 hours) | inhibition at 1 µM (PC3; PC3, 1 μM, 48 hours) | other results
1 | 6-Chloro-5-(3-methyl-2-oxo-8-(quinolin-3-yl)-2,3-dihydro-1H-imidazo[4,5-c]quinolin-1-yl)picolinonitrile [Example 58] |  |  | % Inhibition at 1 μM, C1a (A2780; A2780, 1 μM, 48 hours): 91%; % Inhibition at 1 μM, C2a (PC3; PC3, 1 μM, 48 hours): 60%
2 | Cn1c(=O)n(-c2ccc(C(C)(C)C#N)nc2)c2c3cc(-c4cncc(C(F)(F)F)c4)ccc3ncc21 [Example 4, 2-Methyl-2-(5-(3-methyl-2-oxo-8-(5-(trifluoromethyl)pyridin-3-yl)-2,3-dihydro-1H-imidazo[4,5-c]quinolin-1-yl)pyridin-2-yl)propanenitrile] | 89.2% | 72.6% | 
3 | Cn1c(=O)n(-c2ccc(C(C)(C)C#N)nc2)c2c3cc(-c4cncc5ccccc45)ccc3ncc21 [Example 6, 2-(5-(8-(Isoquinolin-4-yl)-3-methyl-2-oxo-2,3-dihydro-1H-imidazo[4,5-c]quinolin-1-yl)pyridin-2-yl)-2-methylpropanenitrile] | 85.3% | 69.5% | 
4 | CC(C)(C#N)c1ccc(-n2c(=O)n(CC#N)c3cnc4ccc(-c5cccnc5)cc4c32)cn1 [Example 14, 2-(5-(3-(Cyanomethyl)-2-oxo-8-(pyridin-3-yl)-2,3-dihydro-1H-imidazo[4,5-c]quinolin-1-yl)pyridin-2-yl)-2-methylpropanenitrile] |  |  | IC50 (A2780): 0.4 µM; IC50 (PC3): 0.42 µM
5 | COc1ccc(-n2c(=O)n(CC#N)c3cnc4ccc(-c5cccnc5)cc4c32)cn1 [Example 21, 2-(1-(6-Methoxypyridin-3-yl)-2-oxo-8-(pyridin-3-yl)-1H-imidazo[4,5-c]quinolin-3(2H)-yl)acetonitrile] | 38% | 27% | 
6 | COc1ccc(-n2c(=O)n(C)c3cnc4ccc(-c5cncc(C(F)(F)F)c5)cc4c32)cn1 [Example 22, 1-(6-Methoxypyridin-3-yl)-3-methyl-8-(5-(trifluoromethyl)pyridin-3-yl)-1H-imidazo[4,5-c] quinolin-2(3H)-one] | 83.1% | 67.8% | 
7 | COc1ccc(-n2c(=O)n(CC#N)c3cnc4ccc(-c5cnc6ccccc6c5)cc4c32)cn1 [Example 24, 2-(1-(6-Methoxypyridin-3-yl)-2-oxo-8-(quinolin-3-yl)-1H-imidazo[4,5-c]quinolin-3(2H)-yl)acetonitrile] | 66% | 39% | 
8 | COc1ccc(-n2c(=O)n(C)c3cnc4ccc(-c5ccc(N(C)C)nc5)cc4c32)cn1 [Example 25, 8-(6-(Dimethylamino)pyridin-3-yl)-1-(6-methoxypyridin-3-yl)-3-methyl-1H-imidazo[4,5-c] quinolin-2(3H)-one] | 83.4% | 69% | 
9 | CCOc1ccc(-n2c(=O)n(C)c3cnc4ccc(-c5cnc(N)c(C(F)(F)F)c5)cc4c32)cn1 [Example 30, 8-(6-Amino-5-(trifluoromethyl)pyridin-3-yl)-1-(6-ethoxypyridin-3-yl)-3-methyl-1H-imidazo[4,5-c]quinolin-2(3H)-one] | 94% | 71% | 
10 | COc1ccc(-n2c(=O)n(CC#N)c3cnc4ccc(-c5ccc(C(F)(F)F)nc5)cc4c32)c(C)n1 [Example 37, 2-(1-(6-Methoxy-2-methylpyridin-3-yl)-2-oxo-8-(6-(trifluoromethyl)pyridin-3-yl)-1H-imidazo[4,5-c]quinolin-3(2H)-yl)acetonitrile] | 70% | 49.5% | 
11 | COc1ccc(-n2c(=O)n(C)c3cnc4ccc(-c5cnc(N)c(C(F)(F)F)c5)cc4c32)c(C)n1 [Example 38, 8-(6-Amino-5-(trifluoromethyl)pyridin-3-yl)-1-(6-methoxy-2-methylpyridin-3-yl)-3-methyl-1H-imidazo[4,5-c]quinolin-2(3H)-one] |  |  | IC50 (A2780): < 0.005 µM; IC50 (PC3): 0.0078 µM
12 | COc1ccc(-n2c(=O)n(C)c3cnc4ccc(-c5cncc(C(F)(F)F)c5)cc4c32)c(C)n1 [Example 39, 1-(6-Methoxy-2-methylpyridin-3-yl)-3-methyl-8-(5-(trifluoromethyl)pyridin-3-yl)-1H-imidazo[4,5-c]quinolin-2(3H)-one] | 83.4% | 68.8% | 
13 | COc1ccc(-n2c(=O)n(C)c3cnc4ccc(-c5cnc6ccccc6c5)cc4c32)c(C)n1 [Example 41, 1-(6-Methoxy-2-methylpyridin-3-yl)-3-methyl-8-(quinolin-3-yl)-1H-imidazo[4,5-c]quinolin-2(3H)-one] | 80% | 68% | 
14 | N#CCn1c(=O)n(-c2ccc(C#N)nc2)c2c3cc(-c4cccnc4)ccc3ncc21 [Example 42, 5-(3-(Cyanomethyl)-2-oxo-8-(pyridin-3-yl)-2,3-dihydro-1H-imidazo[4,5-c]quinolin-1-yl)picolinonitrile] | 60 to 80% | 60 to 80% | 
15 | CC(C#N)n1c(=O)n(-c2ccc(C#N)nc2)c2c3cc(-c4cccnc4)ccc3ncc21 (centres unmarked) [Example 43, 5-(3-(1-Cyanoethyl)-2-oxo-8-(pyridin-3-yl)-2,3-dihydro-1H-imidazo[4,5-c]quinolin-1-yl)picolinonitrile] | 8% | 13% | 
16 | Cn1c(=O)n(-c2ccc(C#N)nc2)c2c3cc(-c4cnc(N)c(C(F)(F)F)c4)ccc3ncc21 [Example 45, 5-(8-(6-Amino-5-(trifluoromethyl)pyridin-3-yl)-3-methyl-2-oxo-2,3-dihydro-1H-imidazo[4,5-c]quinolin-1-yl)picolinonitrile] | 52% | 37% | 
17 | Cn1c(=O)n(-c2ccc(C#N)nc2)c2c3cc(-c4cccnc4F)ccc3ncc21 [Example 46, 5-(8-(2-Fluoropyridin-3-yl)-3-methyl-2-oxo-2,3-dihydro-1H-imidazo[4,5-c]quinolin-1-yl)picolinonitrile] | 34% | 27% | 
18 | Cn1c(=O)n(-c2ccc(C#N)nc2)c2c3cc(-c4ccc(F)nc4)ccc3ncc21 [Example 47, 5-(8-(6-Fluoropyridin-3-yl)-3-methyl-2-oxo-2,3-dihydro-1H-imidazo[4,5-c]quinolin-1-yl)picolinonitrile] |  |  | inhibition at 10 µM (A2780; 48 hours): 40 to 60%; inhibition at 10 µM (PC3; 48 hours): 40 to 60%
19 | COc1ccc(-c2ccc3ncc4c(c3c2)n(-c2ccc(C#N)nc2)c(=O)n4C)cn1 [Example 48, 5-(8-(6-Methoxypyridin-3-yl)-3-methyl-2-oxo-2,3-dihydro-1H-imidazo[4,5-c]quinolin-1-yl)picolinonitrile] |  |  | inhibition at 10 µM (A2780; 48 hours): 40 to 60%; inhibition at 10 µM (PC3; 48 hours): 40 to 60%
20 | N#CCn1c(=O)n(-c2ccc(C#N)nc2)c2c3cc(-c4cnc5ccccc5c4)ccc3ncc21 [Example 51, 5-(3-(Cyanomethyl)-2-oxo-8-(quinolin-3-yl)-2,3-dihydro-1H-imidazo[4,5-c]quinolin-1-yl)picolinonitrile] | 73% | 41% | 
21 | CC(C#N)n1c(=O)n(-c2ccc(C#N)nc2)c2c3cc(-c4cnc5ccccc5c4)ccc3ncc21 (centres unmarked) [Example 52, 5-(3-(1-Cyanoethyl)-2-oxo-8-(quinolin-3-yl)-2,3-dihydro-1H-imidazo[4,5-c]quinolin-1-yl)picolinonitrile] | 36% | 12% | 
22 | Cn1c(=O)n(-c2ccc(C(F)(F)F)nc2)c2c3cc(-c4cccnc4)ccc3ncc21 [Example 53, 3-Methyl-8-(pyridin-3-yl)-1-(6-(trifluoromethyl)pyridin-3-yl)-1H-imidazo[4,5-c]quinolin-2(3H)-one] |  |  | IC50 (A2780): 0.55 µM; IC50 (PC3): 0.75 µM
